The values below are quoted from earlier work in patent publication US20240074994A1, “COMPOSITION OF CHLORHEXIDINE” (priority 2022, published 2024).

Data set [1] concerns HSV-1. As to conditions: 0.2% applied topically onto HSV-1 infected forehead skin of mice.
In data set [2] the test system is HSV-1. As to conditions: Vero cell monolayers.

On to Chlorhexidine, for which, in the data set with HSV-1 [1], the “development of viral lesions” value is given as “moderately reduced”; the “viral titers in the skin and trigeminal ganglia” value is listed as “moderately reduced”. For the same substance, in the data set with HSV-1 [2], the “cytolytic activity of HSV-1” value is “moderately, but significantly, inhibited” and the “replication of HSV-1” value is recorded as “moderately, but significantly, inhibited”.
